Data as given in ChEMBL document CHEMBL1131313, “1-[omega-(4-arylpiperazin-1-yl)alkyl]-3-diphenylmethylene-2,5- pyrrolidinediones as 5-HT1A receptor ligands: study of the steric requirements of the terminal amide fragment on 5-HT1A affinity/selectivity” (Bioorg Med Chem Lett, 1998).

How the values were obtained:
[1] = target: D(2) dopamine receptor (Rattus norvegicus, UniProt P61169); assay: In vitro binding affinity against Dopamine receptor D2 in rat striatum membrane using [3H]raclopride as radioligand; type: cell membranes
[2] = target: T1, Adrenergic receptor alpha-1 (Rattus norvegicus, UniProt P15823+P23944+P43140); assay: In vitro binding affinity against Alpha-1 adrenergic receptor in rat cerebral cortex membrane using [3H]prazosin as radioligand; type: cell membranes
T1 sequence (P15823 whole entry): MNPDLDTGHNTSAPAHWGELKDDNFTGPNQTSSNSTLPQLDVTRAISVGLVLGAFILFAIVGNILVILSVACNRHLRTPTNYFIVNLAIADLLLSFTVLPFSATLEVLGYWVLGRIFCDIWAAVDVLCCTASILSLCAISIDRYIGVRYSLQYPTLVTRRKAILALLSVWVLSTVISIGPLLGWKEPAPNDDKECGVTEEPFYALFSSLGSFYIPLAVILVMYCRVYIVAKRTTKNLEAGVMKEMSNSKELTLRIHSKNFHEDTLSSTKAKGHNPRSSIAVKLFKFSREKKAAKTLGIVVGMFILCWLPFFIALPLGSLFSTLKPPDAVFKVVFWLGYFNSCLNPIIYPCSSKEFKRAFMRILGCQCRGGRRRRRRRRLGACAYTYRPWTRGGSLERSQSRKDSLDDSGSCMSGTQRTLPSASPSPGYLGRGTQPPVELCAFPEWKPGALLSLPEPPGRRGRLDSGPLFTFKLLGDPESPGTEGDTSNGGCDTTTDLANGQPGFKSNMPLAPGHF
T1 sequence (P23944 whole entry): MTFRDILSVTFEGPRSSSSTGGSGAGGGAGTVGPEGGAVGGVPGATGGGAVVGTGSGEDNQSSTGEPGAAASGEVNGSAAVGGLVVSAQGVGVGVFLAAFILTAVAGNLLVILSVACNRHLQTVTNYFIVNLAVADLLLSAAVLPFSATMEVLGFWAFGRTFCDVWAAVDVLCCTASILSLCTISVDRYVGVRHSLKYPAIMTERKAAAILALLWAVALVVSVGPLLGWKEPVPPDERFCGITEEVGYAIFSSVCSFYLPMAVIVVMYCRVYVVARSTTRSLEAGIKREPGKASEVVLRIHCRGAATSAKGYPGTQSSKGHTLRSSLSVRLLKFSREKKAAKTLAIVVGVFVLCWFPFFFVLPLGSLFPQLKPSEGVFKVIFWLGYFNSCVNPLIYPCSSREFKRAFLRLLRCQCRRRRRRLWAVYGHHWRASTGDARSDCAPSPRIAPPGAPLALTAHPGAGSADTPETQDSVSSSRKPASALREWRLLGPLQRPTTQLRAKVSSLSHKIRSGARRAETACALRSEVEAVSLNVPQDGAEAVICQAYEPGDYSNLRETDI
T1 sequence (P43140 whole entry): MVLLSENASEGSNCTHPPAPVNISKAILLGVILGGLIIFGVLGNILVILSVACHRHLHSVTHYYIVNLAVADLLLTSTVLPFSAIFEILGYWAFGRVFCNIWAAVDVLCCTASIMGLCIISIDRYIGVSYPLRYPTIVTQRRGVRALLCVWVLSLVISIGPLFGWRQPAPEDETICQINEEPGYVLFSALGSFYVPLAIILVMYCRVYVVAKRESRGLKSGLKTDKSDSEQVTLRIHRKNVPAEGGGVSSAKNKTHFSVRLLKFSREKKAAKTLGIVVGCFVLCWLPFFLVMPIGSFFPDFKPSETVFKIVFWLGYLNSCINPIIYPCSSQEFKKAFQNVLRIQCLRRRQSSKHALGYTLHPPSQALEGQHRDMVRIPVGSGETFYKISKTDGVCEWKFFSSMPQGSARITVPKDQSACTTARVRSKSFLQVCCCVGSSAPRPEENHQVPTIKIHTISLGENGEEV

[3] = target: T2, 5-hydroxytryptamine receptor 1A (Rattus norvegicus, UniProt P19327); assay: In vitro binding affinity against serotonin 5-HT1A receptor in rat cerebral cortex membrane using [3H]8-OH-DPAT as radioligand; type: cell membranes
T2 sequence (P19327 whole entry): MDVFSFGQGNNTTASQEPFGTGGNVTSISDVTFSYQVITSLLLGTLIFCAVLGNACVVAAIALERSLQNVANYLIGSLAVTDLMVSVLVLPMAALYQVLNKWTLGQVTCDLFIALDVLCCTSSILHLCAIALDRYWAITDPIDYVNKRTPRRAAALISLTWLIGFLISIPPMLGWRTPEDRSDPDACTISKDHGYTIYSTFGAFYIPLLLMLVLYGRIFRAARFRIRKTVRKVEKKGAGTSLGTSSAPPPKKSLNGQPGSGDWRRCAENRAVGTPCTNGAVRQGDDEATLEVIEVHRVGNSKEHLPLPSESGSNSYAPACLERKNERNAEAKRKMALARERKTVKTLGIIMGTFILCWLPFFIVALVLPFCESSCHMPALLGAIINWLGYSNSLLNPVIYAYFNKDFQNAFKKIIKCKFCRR

[4] = organism: Rattus norvegicus; assay: Compound was evaluated for its ability to affect adenylyl cyclase activity in rat hippocampus slice preparation; agonist; type: functional; settings: filed as agonist
[5] = target: T1, Adrenergic receptor alpha-1; assay: Antagonistic activity (pA2) at Alpha-1 adrenergic receptor in ring segments of rat thoracic aorta contracted by phenylephrine; type: functional, tissue-based

Chain of D(2) dopamine receptor (P61169 whole entry): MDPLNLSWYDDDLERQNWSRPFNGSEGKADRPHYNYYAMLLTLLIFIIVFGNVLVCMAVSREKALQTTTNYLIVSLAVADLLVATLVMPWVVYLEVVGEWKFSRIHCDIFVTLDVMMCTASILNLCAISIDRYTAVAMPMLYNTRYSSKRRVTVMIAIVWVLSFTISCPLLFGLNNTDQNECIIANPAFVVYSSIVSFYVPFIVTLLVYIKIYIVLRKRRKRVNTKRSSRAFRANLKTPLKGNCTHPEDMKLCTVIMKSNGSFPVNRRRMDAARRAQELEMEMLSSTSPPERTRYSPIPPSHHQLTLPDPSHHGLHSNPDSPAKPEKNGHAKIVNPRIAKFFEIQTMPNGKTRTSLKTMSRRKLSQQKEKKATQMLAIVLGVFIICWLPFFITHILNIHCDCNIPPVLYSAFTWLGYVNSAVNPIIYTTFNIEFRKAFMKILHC

Row | SMILES | Ki [1] [nM] | Ki [2] [nM] | Ki [3] [nM] | Activity [4] | pA2 [5]
1 | O=C1CC(=C(c2ccccc2)c2ccccc2)C(=O)N1CCCCN1CCN(c2ccccc2)CC1 | > 1000 | 6.4 | 125 |  | 
2 | O=C1CC(=C(c2ccccc2)c2ccccc2)C(=O)N1CN1CCN(c2cccc(C(F)(F)F)c2)CC1 | > 1000 | > 1000 | 59.6 | Agonist | 
3 | COc1ccccc1N1CCN(CN2C(=O)CC(=C(c3ccccc3)c3ccccc3)C2=O)CC1 | > 1000 | > 1000 | 93.8 |  | 
4 | COc1ccccc1N1CCN(CCCN2C(=O)CC(=C(c3ccccc3)c3ccccc3)C2=O)CC1 | 156 | 8.1 | 665 |  | 
5 | O=C1CC(=C(c2ccccc2)c2ccccc2)C(=O)N1CCN1CCN(c2cccc(Cl)c2)CC1 | > 1000 | > 1000 | > 1000 |  | 
6 | O=C1CC(=C(c2ccccc2)c2ccccc2)C(=O)N1CCN1CCN(c2ccc(F)cc2)CC1 | > 1000 | 529 | > 1000 |  | 
7 | O=C1CC(=C(c2ccccc2)c2ccccc2)C(=O)N1CCCCN1CCN(c2cccc(C(F)(F)F)c2)CC1 | 689 | 60.5 | 15.8 |  | 
8 | O=C1CC(=C(c2ccccc2)c2ccccc2)C(=O)N1CCCN1CCN(c2ccccc2)CC1 | > 1000 | 5.7 | > 1000 |  | 7.79
9 | O=C1CC(=C(c2ccccc2)c2ccccc2)C(=O)N1CCN1CCN(c2cccc(C(F)(F)F)c2)CC1 | > 1000 | > 1000 | > 1000 |  | 
10 | O=C1CC(=C(c2ccccc2)c2ccccc2)C(=O)N1CCCN1CCN(c2cccc(Cl)c2)CC1 | 801 | 39.2 | 127 |  | 
11 | O=C1CC(=C(c2ccccc2)c2ccccc2)C(=O)N1CN1CCN(c2cccc(Cl)c2)CC1 | > 1000 | 392 | 49.4 |  | 
12 | COc1ccccc1N1CCN(CCCCN2C(=O)CC(=C(c3ccccc3)c3ccccc3)C2=O)CC1 | > 1000 | 14.4 | 13.4 |  | 
13 | O=C1CC(=C(c2ccccc2)c2ccccc2)C(=O)N1CCCN1CCN(c2ccc(F)cc2)CC1 | > 1000 | 8.3 | > 1000 |  | 8.63
14 | O=C1CC(=C(c2ccccc2)c2ccccc2)C(=O)N1CCCCN1CCN(c2ccc(F)cc2)CC1 | 351 | 51.8 | 3.3 | Agonist | 
15 | O=C1CC(=C(c2ccccc2)c2ccccc2)C(=O)N1CCN1CCN(c2ccccc2)CC1 | > 1000 | 214 | > 1000 |  | 
16 | O=C1CC(=C(c2ccccc2)c2ccccc2)C(=O)N1CCCCN1CCN(c2cccc(Cl)c2)CC1 | 367 | 16.4 | 39.3 |  | 
17 | O=C1CC(=C(c2ccccc2)c2ccccc2)C(=O)N1CN1CCN(c2ccc(F)cc2)CC1 | > 1000 | 746 | > 1000 |  | 
18 | COc1ccccc1N1CCN(CCN2C(=O)CC(=C(c3ccccc3)c3ccccc3)C2=O)CC1 | 167 | 71.5 | 286 |  | 
19 | O=C1CC(=C(c2ccccc2)c2ccccc2)C(=O)N1CCCN1CCN(c2cccc(C(F)(F)F)c2)CC1 | > 1000 | 62.7 | > 1000 |  | 
20 | O=C1CC(=C(c2ccccc2)c2ccccc2)C(=O)N1CN1CCN(c2ccccc2)CC1 | > 1000 | > 1000 | 98 |  | 
